Assay results from paper PMC10547238, “Discovery of Potent Tetrazole Free Fatty Acid Receptor 2 Antagonists” (Journal of Medicinal Chemistry, 2023).

Tests used:
[1] = molecular target: T1, hFFA2 (Homo sapiens, UniProt O15552); assay: cAMP assay, antagonist mode, Flp-In T-Rex 293 cells expressing hFFA2-eYFP; type: cell-based; conditions: for cAMP pIC50: hFFA2, antagonist mode, propionate at EC80, mean ± SEM, three or more experiments; for LLEcAMP: pIC50, cAMP – ClogP; for IC50 / hFFA2 cAMP (pIC50): supplementary CSV; for IC50: read-out: hFFA2 cAMP (pIC50) (converted)
T1 construct: expressed in transfected cells; host or cells: Flp-In T-Rex 293 cells, doxycycline-induced
T1 sequence (O15552 1-330): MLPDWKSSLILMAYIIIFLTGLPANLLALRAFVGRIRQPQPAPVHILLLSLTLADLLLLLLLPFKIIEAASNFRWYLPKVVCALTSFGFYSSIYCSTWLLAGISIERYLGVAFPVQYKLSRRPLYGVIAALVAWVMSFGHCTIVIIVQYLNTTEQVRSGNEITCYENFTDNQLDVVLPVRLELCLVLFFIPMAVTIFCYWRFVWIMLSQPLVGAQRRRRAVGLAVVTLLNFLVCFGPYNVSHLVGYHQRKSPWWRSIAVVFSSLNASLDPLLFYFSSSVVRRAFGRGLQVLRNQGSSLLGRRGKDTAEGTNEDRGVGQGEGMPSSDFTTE
Method: (§1) The activity of the compounds on FFA2 was evaluated in two different functional antagonist assays, both using propionate at EC80 as the agonist. The GTPγS assay reflects receptor activation by directly assessing G protein recruitment, whereas the cAMP assay, performed in whole cells, reflects a physiologically relevant downstream second messenger.
The hFFA2-eYFP and hFFA3-eYFP Flp-In T-Rex 293 cell lines were maintained in Dulbecco’s modified Eagle mMedium (DMEM, ThermoFisher #11965092) supplemented with 10% (v/v) fetal bovine serum, 100 U/mL penicillin, 100 μg/mL streptomycin, 5 μg/mL blasticidin S, and 200 μg/mL hygromycin B and incubated at 37 °C and 5% CO2 in a humidified incubator. Cells were passaged at 70–80% confluency.
To determine the compound’s ability to activate or inhibit the Gi-coupled FFA2 or FFA3, intracellular cAMP concentrations were determined using Flp-In T-Rex293 cells induced to express hFFA2-eYFP or hFFA3-eYFP. Experiments were carried out using a homogeneous time-resolved FRET-based detection kit (CisBio, PerkinElmer #62AM9PEC) according to the manufacturer’s protocol. The day before the assay, 10,000 cells/well were plated in DMEM supplemented with penicillin/streptomycin (100 units/mL and […], respectively), 5 μg/mL blasticidin S, and 200 μg/mL hygromycin B in 96-well cell culture microplates (Greiner Bio-One) and induced to express hFFA2-eYFP or hFFA3-YFP with 100 ng/mL doxycycline.
In antagonist mode, the cells were pre-incubated for 20 min with antagonist test compounds in HBSS together with 50 μM IBMX at rt. Then, the cells were further incubated for 25 min at rt in HBSS with the agonist compound, sodium propionate at EC80 (51.4 μM for FFA2, 13.2 μM for FFA3), and 3 μM forskolin. Reactions were stopped, and the output was measured with an Envision plate reader using a time-resolved fluorescence protocol, measuring the light emission at 620 and 665 nm. All analyses were performed in triplicate and analyzed using GraphPad Prism (version 9).

[2] = molecular target: T2, human FFA2-eYFP (Homo sapiens, UniProt O15552); assay: [35S]GTPγS incorporation assay, membranes of Flp-In T-Rex 293 cells; type: biochemical; conditions: for GTPγS pIC50: hFFA2, propionate at EC80, mean ± SEM, three or more experiments; for LLEGTPγS: pIC50, GTPγS – ClogP
T2 construct: expressed in transfected cells; host or cells: membranes of Flp-In T-Rex 293 cells induced to express the construct
T2 sequence (O15552 1-330): T1 sequence (O15552 1-330)
Method: as §1
Functional activity of the compounds were tested in a [^35S]GTPγS incorporation assay using membranes of Flp-In T-Rex 293 cells induced to express human FFA2-eYFP. […] The reaction was initiated by addition of [^35S]GTPγS (100 nCi per reaction) containing 1 μM GDP and incubated at 30 °C for 60 min. The reaction was terminated by rapid vacuum filtration through GF/C glass fiber filter-bottom 96-well microplates (PerkinElmer Life Sciences, Beaconsfield, UK) using a UniFilter FilterMate Harvester (PerkinElmer). Unbound radioligands were removed from filters by three washes with ice-cold PBS. MicroScint-20 (PerkinElmer) was added to dried filters, and [^35S]GTPγS binding was quantified by liquid scintillation spectroscopy.

| cAMP pIC50 [1] | LLEcAMP [1] | IC50 [1] | GTPγS pIC50 [2] | LLEGTPγS [2] | hFFA2 cAMP (pIC50) [1] | SMILES |
| --- | --- | --- | --- | --- | --- | --- |
| 7.89 ± 0.20 | 5.33 | 11.7 nM | 8.36 ± 0.09 | 5.80 | – | O=C(Cc1ccccc1)N[C@@H](Cc1ccc(C(F)(F)F)cc1)Cc1nnn[nH]1 [Compound 16a, (S)-N-(1-(1H-Tetrazol-5-yl)-3-(4-(trifluoromethyl)phenyl)propan-2-yl)-2-phenylacetamide] |
| 7.96 ± 0.03 | 5.39 | – | 8.06 ± 0.06 | 5.49 | 7.95 ± 0.12 | O=C(N[C@@H](Cc1ccc(C(F)(F)F)cc1)Cc1nnn[nH]1)C1Cc2ccccc21 (stereo partly drawn) [Compound 16b, N-((S)-1-(1H-Tetrazol-5-yl)-3-(4-(trifluoromethyl)phenyl)propan-2-yl)bicyclo[4.2.0]octa-1(6),2,4-triene-7-carboxamide] |
| 8.26 ± 0.16 | 5.55 | – | 8.13 ± 0.04 | 5.42 | – | O=C(Cc1cccc(F)c1)N[C@@H](Cc1ccc(C(F)(F)F)cc1)Cc1nnn[nH]1 [Compound 16c, (S)-N-(1-(1H-Tetrazol-5-yl)-3-(4-(trifluoromethyl)phenyl)propan-2-yl)-2-(3-fluorophenyl)acetamide] |
| 6.91 ± 0.07 | 5.09 | 102 nM | 7.47 ± 0.04 | 5.65 | – | O=C(Cc1cccc(F)c1)N[C@@H](Cc1ccccc1)Cc1nnn[nH]1 [Compound 16d, (S)-2-(3-Fluorophenyl)-N-(1-phenyl-3-(1H-tetrazol-5-yl)propan-2-yl)acetamide] |
| 8.08 ± 0.11 | 4.80 | 9.33 nM | 8.07 ± 0.04 | 4.79 | – | O=C(Cc1ccc(Cl)cc1)N[C@@H](Cc1ccc(C(F)(F)F)cc1)Cc1nnn[nH]1 [Compound 16f, (S)-N-(1-(1H-Tetrazol-5-yl)-3-(4-(trifluoromethyl)phenyl)propan-2-yl)-2-(4-chlorophenyl)acetamide] |
| 7.68 ± 0.11 | 4.23 | 15.8 nM | 8.05 ± 0.21 | 4.60 | – | O=C(Cc1cccc(C(F)(F)F)c1)N[C@@H](Cc1ccc(C(F)(F)F)cc1)Cc1nnn[nH]1 [Compound 16i, (S)-N-(1-(1H-Tetrazol-5-yl)-3-(4-(trifluoromethyl)phenyl)propan-2-yl)-2-(3-(trifluoromethyl)phenyl)acetamide] |
| 7.77 ± 0.12 | 4.76 | 15.8 nM | 8.05 ± 0.19 | 5.04 | – | CCOc1cccc(CC(=O)N[C@@H](Cc2ccc(C(F)(F)F)cc2)Cc2nnn[nH]2)c1 [Compound 16m, (S)-N-(1-(1H-Tetrazol-5-yl)-3-(4-(trifluoromethyl)phenyl)propan-2-yl)-2-(3-ethoxyphenyl)acetamide] |
| 7.44 ± 0.18 | 3.85 | 46.8 nM | 7.50 ± 0.23 | 3.91 | – | O=C(Cc1cccc(OC(F)(F)F)c1)N[C@@H](Cc1ccc(C(F)(F)F)cc1)Cc1nnn[nH]1 [Compound 16n, (S)-N-(1-(1H-Tetrazol-5-yl)-3-(4-(trifluoromethyl)phenyl)propan-2-yl)-2-(3-(trifluoromethoxy)phenyl)acetamide] |
| 5.24 ± 0.17 | 2.35 | – | 5.78 ± 0.14 | 2.89 | 5.22 ± 0.18 | O=C(CC1CCCC1)N[C@@H](Cc1ccc(C(F)(F)F)cc1)Cc1nnn[nH]1 [Compound 16o, (S)-N-(1-(1H-Tetrazol-5-yl)-3-(4-(trifluoromethyl)phenyl)propan-2-yl)-2-cyclopentylacetamide] |
| 6.36 ± 0.12 | 3.45 | 355 nM | 6.37 ± 0.44 | 3.46 | – | CCCCCC(=O)N[C@@H](Cc1ccc(C(F)(F)F)cc1)Cc1nnn[nH]1 [Compound 16p, (S)-N-(1-(1H-Tetrazol-5-yl)-3-(4-(trifluoromethyl)phenyl)propan-2-yl)hexanamide] |
